US8268881B2, “Carboxamide derivatives as muscarinic receptor antagonists” (Pfizer Limited, priority 2005, dated 2012)

Target: T1, human muscarinic M3 receptor (Homo sapiens, UniProt P20309)
T1 construct: expressed in transfected cells
Assay: hM3 β-Lac potency assay (cell based β-lactamase)
Conditions: not given
Procedure: M3 potency was determined in CHO-K1 cells transfected with the NFAT-Betalactamase gene. CHO (Chinese Hamster Ovary) cells recombinantly expressing the human muscarinic M3 receptor were transfected with the NFAT_β-Lac_Zeo plasmid.
The cells were re-suspended at 2×10^5 cells/ml in growth medium (composition as described above). […] Inhibition curves were plotted and IC50 values generated using a 4-parameter sigmoid fit and converted to Ki values using the Cheng-Prusoff correction and the KD value for carbamyl choline in the assay.

T1 sequence (P20309 whole entry): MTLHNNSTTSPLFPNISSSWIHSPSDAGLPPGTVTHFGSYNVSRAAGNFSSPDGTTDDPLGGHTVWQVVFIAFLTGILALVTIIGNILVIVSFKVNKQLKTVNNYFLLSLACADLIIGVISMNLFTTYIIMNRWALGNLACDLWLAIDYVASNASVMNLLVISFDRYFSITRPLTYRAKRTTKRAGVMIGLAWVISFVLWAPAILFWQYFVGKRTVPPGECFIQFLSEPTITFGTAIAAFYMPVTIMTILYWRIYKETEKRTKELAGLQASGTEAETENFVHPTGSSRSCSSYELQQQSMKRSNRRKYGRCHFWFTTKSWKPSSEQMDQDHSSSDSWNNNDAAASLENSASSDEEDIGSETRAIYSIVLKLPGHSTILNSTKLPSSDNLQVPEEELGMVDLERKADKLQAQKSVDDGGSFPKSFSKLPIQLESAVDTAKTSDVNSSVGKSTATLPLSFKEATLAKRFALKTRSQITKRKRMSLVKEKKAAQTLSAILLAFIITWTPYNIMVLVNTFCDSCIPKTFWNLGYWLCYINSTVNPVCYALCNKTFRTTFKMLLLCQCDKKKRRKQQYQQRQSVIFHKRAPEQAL

| Compound | Ki [nM] |
| --- | --- |
| CC(C)(CCC(C(N)=O)(c1ccccc1)c1ccccc1)N1CC[C@H](Oc2ccc(Cl)cc2O)C1 [Example 36, 5-[(3S)-3-(4-Chloro-2-Hydroxy-phenoxy)-pyrrolidin-1-yl]-5-methyl-2,2-diphenyl-hexanoic acid amide] | 17.6 |

Same assay, conditions: CHO cells expressing human M3 receptor, NFAT β-lactamase reporter; […]; IC50 converted to Ki by Cheng-Prusoff; read-out: Cell based β-lactamase M3 Ki

| Compound | Ki [nM] |
| --- | --- |
| CC(C)(CCC(C#N)(c1ccccc1)c1ccccc1)N1CC[C@H](Oc2ccccc2)C1 [Example 1, 5-Methyl-5-[(3S)-3-phenoxypyrrolidin-1-yl]-2,2-diphenylhexanenitrile] | 8.34 |

Same assay, conditions: CHO cells expressing human M3 receptor, NFAT β-lactamase reporter; inhibition of 80 nM carbamyl choline signal, 4 h; IC50 converted to Ki by Cheng-Prusoff; read-out: Cell based β-lactamase M3 Ki

| Ki [nM] | Compound |
| --- | --- |
| 1.55 | CC(C)(CCC(C(N)=O)(c1ccccc1)c1ccccc1)N1CC[C@@H](Oc2ccccc2)C1 [Example 4, 5-Methyl-5-[(3R)-3-phenoxypyrrolidin-1-yl]-2,2-diphenylhexanamide] |
| 1.02 | COc1cccc(O[C@H]2CCN(C(C)(C)CCC(C(N)=O)(c3ccccc3)c3ccccc3)C2)c1 [Example 6, 5-[(3S)-3-(3-methoxyphenoxy)pyrrolidin-1-yl]-5-methyl-2,2-diphenylhexanamide] |
| 1.87 | CC(C)(CCC(C(N)=O)(c1ccccc1)c1ccccc1)N1CC[C@@H](OCc2ccccc2)C1 [Example 9, 5-[(3R)-3-(Benzyloxy)pyrrolidin-1-yl]-5-methyl-2,2-diphenylhexanamide] |
| 3.27 | CC(C)(CCC(C(N)=O)(c1ccccc1)c1ccccc1)N1CC[C@H](OCc2ccccc2)C1 [Example 11, 5-[(3S)-3-(Benzyloxy)pyrrolidin-1-yl]-5-methyl-2,2-diphenylhexanamide] |
| 0.3 | COc1cccc(O[C@@H]2CCN(C(C)(C)CCC(C(N)=O)(c3ccccc3)c3ccccc3)C2)c1 [Example 12, 5-[(3R)-3-(3-Methoxyphenoxy)pyrrolidin-1-yl]-5-methyl-2,2-diphenylhexanamide] |
| 1.32 | Cc1cccc(O[C@H]2CCN(C(C)(C)CCC(C(N)=O)(c3ccccc3)c3ccccc3)C2)c1 [Example 14, 5-Methyl-5-[(3S)-3-(3-methylphenoxy)pyrrolidin-1-yl]-2,2-diphenylhexanamide] |
| 4.25 | CC(C)(CCC(C(N)=O)(c1ccccc1)c1ccccc1)N1CC[C@@H](Oc2ccc3ncoc3c2)C1 [Example 15, 5-[(3R)-3-(1,3-Benzoxazol-6-yloxy)pyrrolidin-1-yl]5-methyl-2,2-diphenylhexanamide] |
| 6.96 | CC(C)(CCC(C(N)=O)(c1ccccc1)c1ccccc1)N1CC[C@H](Oc2ccc(-c3cccc(O)c3)cc2)C1 [Example 18, 5-{(3S)-3-[(3′-Hydroxybiphenyl-4-yl)oxy]pyrrolidin-1-yl}-5-methyl-2,2-diphenylhexanamide] |
| 5.56 | CC(C)(CCC(C(N)=O)(c1ccccc1)c1ccccc1)N1CC[C@H](Oc2cccc(-c3cccc(O)c3)c2)C1 [Example 19, 5-{(3S)-3-[(3′-Hydroxybiphenyl-3-yl)oxy]pyrrolidin-1-yl}-5-methyl-2,2-diphenylhexanamide] |
| 108 | CC(C)(CCC(C(N)=O)(c1ccccc1)c1ccccc1)N1CC[C@H](Oc2ccc3cc(O)ccc3c2)C1 [Example 20, 5-{(3S)-3-[(6-Hydroxy-2-naphthyl)oxy]pyrrolidin-1-yl}-5-methyl-2,2-diphenylhexanamide] |
| 20.7 | CC(C)(CCC(C(N)=O)(c1ccccc1)c1ccccc1)N1CC[C@H](Oc2ccc(C(F)(F)F)cc2)C1 [Example 24, 5-[(3S)-3-(4-trifluoromethyl-phenoxy)pyrrolidin-1-yl]-5-methyl-2,2-diphenylhexanamide] |
| 1.67 | CC(C)(CCC(C(N)=O)(c1ccccc1)c1ccccc1)N1CC[C@@H](Oc2ccc(C(F)(F)F)cc2)C1 [Example 26, 5-[(3R)-3-(4-trifluoromethyl-phenoxy)pyrrolidin-1-yl]-5-methyl-2,2-diphenylhexanamide] |
| 47.4 | COc1ccc(O[C@@H]2CCN(C(C)(C)CCC(C(N)=O)(c3ccccc3)c3ccccc3)C2)cc1Cl [Example 28, 5-[(3R)-3-(3-chloro-4-methoxy-phenoxy)pyrrolidin-1-yl]-5-methyl-2,2-diphenylhexanamide] |
| 2.26 | Cc1cc(O)cc(O[C@H]2CCN(C(C)(C)CCC(C(N)=O)(c3ccccc3)c3ccccc3)C2)c1 [Example 29, 5-[(3S)-3-(3-Hydroxy-5-methyl-phenoxy)-pyrrolidin-1-yl]-5-methyl-2,2-diphenyl-hexanoic acid amide] |
| 0.333 | Cc1c(O)cccc1O[C@H]1CCN(C(C)(C)CCC(C(N)=O)(c2ccccc2)c2ccccc2)C1 [Example 30, 5-[(3S)-3-(3-Hydroxy-2-methyl-phenoxy)-pyrrolidin-1-yl]-5-methyl-2,2-diphenyl-hexanoic acid amide] |
| 45.1 | CC(C)(CCC(C(N)=O)(c1ccccc1)c1ccccc1)N1CC[C@H](Oc2cc(O)c(Cl)cc2Cl)C1 [Example 31, 5-[(3S)-3-(2,4-Dichloro-5-Hydroxy-phenoxy)-pyrrolidin-1-yl]-5-methyl-2,2-diphenyl-hexanoic acid amide] |

| Ki [nM] | Compound |
| --- | --- |
| 36.4 | CC(C)(CCC(C(N)=O)(c1ccccc1)c1ccccc1)N1CC[C@H](Oc2cc(Cl)c(Cl)cc2O)C1 [Example 32, 5-[(3S)-3-(4,5-Dichloro-2-Hydroxy-phenoxy)-pyrrolidin-1-yl]-5-methyl-2,2-diphenyl-hexanoic acid amide] |
| 6.57 | CC(C)(CCC(C(N)=O)(c1ccccc1)c1ccccc1)N1CC[C@H](Oc2cc(O)cc(Cl)c2)C1 [Example 34, 5-[(3S)-3-(3-Chloro-5-hydroxy-phenoxy)-pyrrolidin-1-yl]-5-methyl-2,2-diphenyl-hexanoic acid amide] |
| 7.28 | COc1cc(Cl)ccc1O[C@H]1CCN(C(C)(C)CCC(C(N)=O)(c2ccccc2)c2ccccc2)C1 [Example 35, 5-[(3S)-3-(4-Chloro-2-Methoxy-phenoxy)-pyrrolidin-1-yl]-5-methyl-2,2-diphenyl-hexanoic acid amide] |
| 5.01 | COc1cccc(O[C@H]2CCN(C(C)(C)CCC(C(N)=O)(c3ccccc3)c3ccccc3)C2)c1Cl [Example 37, 5-[(3S)-3-(2-Chloro-3-Methoxy-phenoxy)-pyrrolidin-1-yl]-5-methyl-2,2-diphenyl-hexanoic acid amide] |
| 0.996 | CC(C)(CCC(C(N)=O)(c1ccccc1)c1ccccc1)N1CC[C@H](Oc2cccc(O)c2Cl)C1 [Example 38, 5-[(3S)-3-(2-Chloro-3-Hydroxy-phenoxy)-pyrrolidin-1-yl]-5-methyl-2,2-diphenyl-hexanoic acid amide] |
| 1.97 | CC(C)(CCC(C(N)=O)(c1ccccc1)c1ccccc1)N1CC[C@H](Oc2ccc(Cl)c(O)c2)C1 [Example 39, 5-[(3S)-3-(4-Chloro-3-Hydroxy-phenoxy)-pyrrolidin-1-yl]-5-methyl-2,2-diphenylhexanoic acid amide] |
| 6.09 | CC(C)(CCC(C(N)=O)(c1ccccc1)c1ccccc1)N1CC[C@H](Oc2cc(O)ccc2Cl)C1 [Example 40, 5-[(3S)-3-(2-Chloro-5-Hydroxy-phenoxy)-pyrrolidin-1-yl]-5-methyl-2,2-diphenyl-hexanoic acid amide] |
| 22.1 | COc1c(Cl)cccc1O[C@@H]1CCN(C(C)(C)CCC(C(N)=O)(c2ccccc2)c2ccccc2)C1 [Example 42, 5-[(3R)-3-(3-Chloro-2-Methoxy-phenoxy)-pyrrolidin-1-yl]-5-methyl-2,2-diphenyl-hexanoic acid amide] |
| 5.35 | CC(C)(CCC(C(N)=O)(c1ccccc1)c1ccccc1)N1CC[C@@H](Oc2cccc(Cl)c2O)C1 [Example 43, 5-[(3R)-3-(3-Chloro-2-Hydroxy-phenoxy)-pyrrolidin-1-yl]-5-methyl-2,2-diphenyl-hexanoic acid amide] |
| 32.2 | Cc1cc(O)c(C)c(O[C@H]2CCN(C(C)(C)CCC(C(N)=O)(c3ccccc3)c3ccccc3)C2)c1 [Example 44, 5-[(3S)-3-(3-Hydroxy-2,5-dimethyl-phenoxy)-pyrrolidin-1-yl]-5-methyl-2,2-diphenyl-hexanoic acid amide] |
| 1.74 | CC(C)(CCC(C(N)=O)(c1ccccc1)c1ccccc1)N1CC[C@H](Oc2cc(O)cc(F)c2)C1 [Example 46, 5-[(3S)-3-(3-Fluoro-5-Hydroxy-phenoxy)-pyrrolidin-1-yl]-5-methyl-2,2-diphenyl-hexanoic acid amide] |
| 48.5 | CC(C)(CCC(C(N)=O)(c1ccccc1)c1ccccc1)N1CC[C@@H](Oc2cc(O)cc(C(F)(F)F)c2)C1 [Example 49, 5-[(3R)-3-(3-Hydroxy-5-trifluoromethyl-phenoxy)-pyrrolidin-1-yl]-5-methyl-2,2-diphenyl-hexanoic acid amide] |
| 3.18 | COc1cc(O[C@H]2CCN(C(C)(C)CCC(C(N)=O)(c3ccccc3)c3ccccc3)C2)ccc1F [Example 50, 5-[(3S)-3-(4-Fluoro-3-Methoxy-phenoxy)-pyrrolidin-1-yl]-5-methyl-2,2-diphenyl-hexanoic acid amide] |
| 0.623 | COc1cccc(O[C@H]2CCN(C(C)(C)CCC(C(N)=O)(c3ccccc3)c3ccccc3)C2)c1F [Example 51, 5-[(3S)-3-(2-Fluoro-3-Methoxy-phenoxy)-pyrrolidin-1-yl]-5-methyl-2,2-diphenyl-hexanoic acid amide] |
| 2.16 | CC(C)(CCC(C(N)=O)(c1ccccc1)c1ccccc1)N1CC[C@H](Oc2ccc(F)c(O)c2)C1 [Example 52, 5-[(3S)-3-(4-Fluoro-3-Hydroxy-phenoxy)-pyrrolidin-1-yl]-5-methyl-2,2-diphenyl-hexanoic acid amide] |

| Compound | Ki [nM] |
| --- | --- |
| CC(C)(CCC(C(N)=O)(c1ccccc1)c1ccccc1)N1CC[C@H](Oc2ccc(Cl)cc2)C1 [Example 16, 5-[(3S)-3-(4-Chlorophenoxy)pyrrolidin-1-yl]-5-methyl-2,2-diphenylhexanamide] | 1.85 |
| CC(C)(CCC(C(N)=O)(c1ccccc1)c1ccccc1)N1CC[C@H](Oc2cccc(Br)c2)C1 [Example 17, 5-[(3S)-3-(3-Bromophenoxy)pyrrolidin-1-yl]-5-methyl-2,2-diphenylhexanamide] | 5.11 |
